What follows are molecules tested against Serine/threonine-protein kinase ATR (Homo sapiens, UniProt Q13535) (assay: In Vitro Inhibitory Activity Against ATR Kinase).
Procedure: A 50 ng/μL ATR stock solution was diluted with a kinase buffer (50 mM HEPES, 10 mM MgCl2, 2 mM DTT, 1 mM EGTA, 0.01% Tween 20), and 6 μL of 1.67×, 0.0835 ng/μL working solution was added to each well (final concentration: 0.05 ng/μL). Different compounds dissolved in DMSO were added to wells using a nanoliter pipettor, such that the final concentrations of the compounds were 1000 nM-0.24 nM and the concentrations in positive wells were 100 nM-0.024 nM (4-fold gradient, 7 concentrations in total). Meanwhile, a blank control well (containing no enzyme) and a negative control well (containing enzyme, with the vehicle DMSO added) were set. After the enzyme had reacted with the compound or vehicle for 30 min, a 5×, 50 μM ATP (final concentration: 10 μM) prepared with the kinase buffer and a 5×, 0.5 μM substrate (final concentration: 0.1 μM, U Light-poly GT) were 1:1 mixed, and the mixture was added to wells at 4 μL/well. After the plate was sealed with a sealing film and the plate was incubated at room temperature for 2 h, 5 μL of 4×, 40 mM EDTA (final concentration: 10 mM) was added to each well. After 5 min of incubation at room temperature, 5 μL of a 4×, 8 nM assay reagent (final concentration: 2 nM, Ep-anti-phospho-tyrosine antibody) was added to each well. The plate was incubated at room temperature for 1 h. Plate reading was performed on a PE instrument (excitation: 320 or 340 nm; emission: 665 nm), and four-parameter fitting and IC50 calculations were performed.

Chain of Serine/threonine-protein kinase ATR (Q13535 whole entry): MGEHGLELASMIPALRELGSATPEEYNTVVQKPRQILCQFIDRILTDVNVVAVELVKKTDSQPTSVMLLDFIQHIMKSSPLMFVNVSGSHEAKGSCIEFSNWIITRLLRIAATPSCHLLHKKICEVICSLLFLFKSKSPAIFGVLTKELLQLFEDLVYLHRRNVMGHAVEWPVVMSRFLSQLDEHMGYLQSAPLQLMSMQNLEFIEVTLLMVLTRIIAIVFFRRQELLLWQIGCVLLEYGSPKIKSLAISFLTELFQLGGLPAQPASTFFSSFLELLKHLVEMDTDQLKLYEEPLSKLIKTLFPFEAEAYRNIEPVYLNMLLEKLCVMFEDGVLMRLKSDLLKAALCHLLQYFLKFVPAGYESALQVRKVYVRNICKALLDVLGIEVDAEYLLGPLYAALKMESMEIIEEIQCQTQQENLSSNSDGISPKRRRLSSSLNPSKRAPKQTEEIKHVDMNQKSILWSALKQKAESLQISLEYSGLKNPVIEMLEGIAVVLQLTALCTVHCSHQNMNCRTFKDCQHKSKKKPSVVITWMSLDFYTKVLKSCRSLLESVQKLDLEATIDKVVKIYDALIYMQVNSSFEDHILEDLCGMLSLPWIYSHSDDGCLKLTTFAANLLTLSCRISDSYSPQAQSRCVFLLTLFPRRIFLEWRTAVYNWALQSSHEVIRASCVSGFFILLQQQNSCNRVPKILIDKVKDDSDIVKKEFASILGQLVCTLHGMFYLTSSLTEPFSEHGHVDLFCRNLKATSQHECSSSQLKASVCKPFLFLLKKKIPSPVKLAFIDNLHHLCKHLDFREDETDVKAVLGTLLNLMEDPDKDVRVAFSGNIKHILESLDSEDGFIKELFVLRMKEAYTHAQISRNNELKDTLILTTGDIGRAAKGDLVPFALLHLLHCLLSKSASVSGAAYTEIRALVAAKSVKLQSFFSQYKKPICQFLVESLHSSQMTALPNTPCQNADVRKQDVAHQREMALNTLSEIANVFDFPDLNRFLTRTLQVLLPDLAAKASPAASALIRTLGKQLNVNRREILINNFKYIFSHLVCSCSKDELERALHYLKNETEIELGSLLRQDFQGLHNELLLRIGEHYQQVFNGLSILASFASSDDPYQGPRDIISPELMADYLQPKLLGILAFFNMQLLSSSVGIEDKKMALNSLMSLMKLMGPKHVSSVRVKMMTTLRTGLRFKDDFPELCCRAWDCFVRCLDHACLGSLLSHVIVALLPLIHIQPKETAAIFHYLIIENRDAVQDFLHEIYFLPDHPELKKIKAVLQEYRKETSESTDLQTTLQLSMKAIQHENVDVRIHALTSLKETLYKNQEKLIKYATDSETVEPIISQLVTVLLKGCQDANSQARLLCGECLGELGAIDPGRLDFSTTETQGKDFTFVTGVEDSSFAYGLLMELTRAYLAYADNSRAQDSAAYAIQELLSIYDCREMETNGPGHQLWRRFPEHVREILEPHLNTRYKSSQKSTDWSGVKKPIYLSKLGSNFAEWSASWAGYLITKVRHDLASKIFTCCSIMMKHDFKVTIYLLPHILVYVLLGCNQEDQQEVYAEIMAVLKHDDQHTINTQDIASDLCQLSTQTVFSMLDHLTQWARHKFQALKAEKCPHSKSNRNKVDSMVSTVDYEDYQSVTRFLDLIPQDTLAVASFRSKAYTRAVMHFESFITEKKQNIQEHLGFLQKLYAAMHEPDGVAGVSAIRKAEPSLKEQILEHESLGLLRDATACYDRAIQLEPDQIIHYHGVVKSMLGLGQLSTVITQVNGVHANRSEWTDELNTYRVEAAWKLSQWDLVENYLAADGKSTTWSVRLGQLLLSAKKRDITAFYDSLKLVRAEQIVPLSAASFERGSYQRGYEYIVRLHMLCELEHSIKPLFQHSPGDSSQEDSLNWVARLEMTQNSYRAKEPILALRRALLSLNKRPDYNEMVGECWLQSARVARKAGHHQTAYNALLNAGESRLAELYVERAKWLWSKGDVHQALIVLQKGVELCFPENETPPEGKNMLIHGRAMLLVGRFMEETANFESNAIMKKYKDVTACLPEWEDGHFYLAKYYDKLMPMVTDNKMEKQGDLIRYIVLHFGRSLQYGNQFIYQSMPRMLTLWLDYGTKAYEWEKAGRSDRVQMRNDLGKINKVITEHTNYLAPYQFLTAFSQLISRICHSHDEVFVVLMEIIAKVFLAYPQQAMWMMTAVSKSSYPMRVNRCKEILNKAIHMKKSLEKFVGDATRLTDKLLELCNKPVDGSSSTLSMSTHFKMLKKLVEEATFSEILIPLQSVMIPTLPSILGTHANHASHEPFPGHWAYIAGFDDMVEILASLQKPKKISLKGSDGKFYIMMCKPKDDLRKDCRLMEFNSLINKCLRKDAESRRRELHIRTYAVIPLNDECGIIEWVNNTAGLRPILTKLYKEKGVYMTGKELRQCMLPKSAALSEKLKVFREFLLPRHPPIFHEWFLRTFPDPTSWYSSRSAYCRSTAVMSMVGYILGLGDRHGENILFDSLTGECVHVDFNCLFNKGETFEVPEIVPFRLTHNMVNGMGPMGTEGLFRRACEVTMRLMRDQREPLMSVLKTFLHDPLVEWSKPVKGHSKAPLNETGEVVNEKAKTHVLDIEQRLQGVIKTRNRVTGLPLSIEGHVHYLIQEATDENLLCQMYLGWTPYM

IC50	SMILES
< 0.05 µM	C[C@@H]1COCCN1c1cc(N=S(C)(C)=O)c2cnn(-c3ccn[nH]3)c2n1 [US20250026750, Compound 1]
< 0.05 µM	C[C@@H]1COCCN1c1cc(N=S2(=O)CCC2)c2cnn(-c3ccn[nH]3)c2n1 [US20250026750, Compound 3]
< 0.05 µM	C[C@@H]1COCCN1c1cc(N=S2(=O)CCCC2)c2cnn(-c3ccn[nH]3)c2n1 [US20250026750, Compound 4]
< 0.05 µM	C[C@@H]1COCCN1c1cc(N=S2(=O)CCOCC2)c2cnn(-c3ccn[nH]3)c2n1 [US20250026750, Compound 6]
< 0.05 µM	C[C@@H]1COCCN1c1cc(N=S(C)(=O)C(C)(C)C)c2cnn(-c3ccn[nH]3)c2n1 (some centres undefined) [US20250026750, Compound 17]
< 0.05 µM	Cc1nn(-c2ccn[nH]2)c2nc(N3CCOC[C@H]3C)cc(N=S(C)(C)=O)c12 [US20250026750, Compound 20]
< 0.05 µM	C[C@@H]1COCCN1c1cc(N=S(C)(C)=O)c2c(C(F)(F)F)nn(-c3ccn[nH]3)c2n1 [US20250026750, Compound 23]
< 0.05 µM	C[C@@H]1COCCN1c1cc(N=S(C)(C)=O)c2c(CCC(F)(F)F)nn(-c3ccn[nH]3)c2n1 [US20250026750, Compound 24]
< 0.05 µM	C[C@@H]1COCCN1c1cc(N=S(C)(C)=O)c2c(C(C)(C)C)nn(-c3cc[nH]n3)c2n1 [US20250026750, Compound 25]
